Source: the SangsterLogP compilation

Molecule CCCOc1ccc(CC(=O)O)cc1 has a logP of 2.31. With O=C(O)Cc1ccc([N+](=O)[O-])cc1 the logP was 1.54. Molecule Cc1cc(C)c(C(=O)O)c(C)c1 has a logP of 3.69. CC(C)c1cc(C(C)C)cc(C2C(=O)c3ccccc3C2=O)c1 showed a logP of 5.96. Molecule O=C1c2ccccc2C(=O)C1c1cccc(C(F)(F)F)c1 has a logP of 3.78. Molecule O=C(O)Cc1ccc(C2CCCC2)cc1 has a logP of 3.44. With CCc1cc(CC)cc(C2C(=O)c3ccccc3C2=O)c1 the logP was 4.94. For CC(C)c1ccc(C2C(=O)c3ccccc3C2=O)cc1, the logP was 4.43. For O=C1c2ccccc2C(=O)C1c1ccc(-c2ccccc2)cc1, the logP was 4.79. Work on CCCCCCC(=O)O yielded a logP of 2.42. Molecule CCCCc1ccc(CC(=O)O)cc1 has a logP of 3.25. With CCc1cccc(C2C(=O)c3ccccc3C2=O)c1 the logP was 3.92. With CC(C)(C)c1cccc(C2C(=O)c3ccccc3C2=O)c1 the logP was 4.88. For O=C(O)CCCCCC(=O)O, the logP was 0.61. With O=C1c2ccccc2C(=O)C1c1ccc(Cl)cc1 the logP was 3.61. For COc1ccc(C2C(=O)c3ccccc3C2=O)cc1, the logP was 2.88. Molecule CCCCCCCCc1ccc(C2C(=O)c3ccccc3C2=O)cc1 has a logP of 6.93. Molecule O=C1c2ccccc2C(=O)C1c1ccc(Br)cc1 has a logP of 3.76. For CCCc1ccc(CC(=O)O)cc1, the logP was 2.75. O=C1c2ccccc2C(=O)C1c1cc(Cl)cc(Cl)c1 gave a logP of 4.32. In the case of CC(C)(C)c1cc(C2C(=O)c3ccccc3C2=O)cc(C(C)(C)C)c1, the logP is reported as 6.86. O=C(O)Cc1ccc(C2CCCCC2)cc1 gave a logP of 3.81. Work on COc1cc(OC)cc(C2C(=O)c3ccccc3C2=O)c1 yielded a logP of 2.86. For CCCCCCCCCCC(=O)O, the logP was 4.42. For CC(C)(C)c1ccc(C2C(=O)c3ccccc3C2=O)cc1, the logP was 4.88. CCCCCCCCCCCC(=O)O gave a logP of 4.92. O=C1c2ccccc2C(=O)C1c1cccc(Cl)c1 showed a logP of 3.61. Molecule O=C1c2ccccc2C(=O)C1c1ccc(C(F)(F)F)cc1 has a logP of 3.78. O=[N+]([O-])c1cc(Cl)c(O)c(Cl)c1 gave a logP of 2.96. Cc1ccc(C2C(=O)c3ccccc3C2=O)cc1 gave a logP of 3.46. In the case of CCCCCCc1ccc(CC(=O)O)cc1, the logP is reported as 4.25. Molecule CCCCCCCCC(=O)O has a logP of 3.42. With O=C(O)Cc1ccc(I)cc1 the logP was 2.53. Cc1cc(C)c(C)c(C(=O)O)c1C gave a logP of 4.19. Work on CCC(C)(C)c1ccc(CC(=O)O)cc1 yielded a logP of 3.48. O=C(O)Cc1ccccc1 gave a logP of 1.41. Work on COc1cccc(C2C(=O)c3ccccc3C2=O)c1 yielded a logP of 2.88. Cc1ccc(C(=O)O)c(C)c1 gave a logP of 3.01. Molecule O=[N+]([O-])c1cc(Br)c(O)c(Br)c1 has a logP of 3.07. Work on CC(C)c1cccc(C2C(=O)c3ccccc3C2=O)c1 yielded a logP of 4.43. Work on Cc1cccc(C2C(=O)c3ccccc3C2=O)c1 yielded a logP of 3.46. Work on CCc1ccc(C2C(=O)c3ccccc3C2=O)cc1 yielded a logP of 3.92. With CCCCCc1ccc(CC(=O)O)cc1 the logP was 3.75. O=C(O)c1cc([N+](=O)[O-])ccc1O showed a logP of 1.98. Work on Cc1cc(C)cc(C2C(=O)c3ccccc3C2=O)c1 yielded a logP of 4.02.
